Values joined by “and” are separate entries in the source; they are usually repeats but may differ in a detail not shown here. Equal values may be shown once. “Also recorded” adds a separate entry of the source.
Legend:
[1] = tested on: pyramidal nerve cells in the hippocampal CA1 region; test: Forebrain ischemia induced by 4-vessel occlusion (4-VO), viable CA1 cells; format: in vivo, Wister male white rats; details: berberine i.p. 0 and 90 minutes after ischemia induction, 1 week after; sham 308±6.6, saline 28±3.8
Description: A 4-VO model was prepared by a modified method of Pulsinelli, et al (Ann. Neurol. 11, 491-498(1982)). Wister male white rats weighing about […] were anesthetized with 5% isoflurane contained in a mixture of nitrogen and oxygen (70:30), and then surgery was performed under anesthetization while maintaining the concentration of isoflurane at 1.5%.
First, the throat region was incised, and then silicone tube rings were inserted into common carotid arteries to perform reperfusion after ischemia induction. Upon inducing ischemia, in order to block blood circulation through microvessels, a thread was penetrated so that the trachea, esophagus, external jugular veins and common carotid arteries of the rat were positioned to the front, and cervical and paravertebral muscles of the rat were positioned to the back. Thereafter, the wounds were sutured with operating clips.
Next, the head of the rat was fixed on a stereotaxic apparatus to operate on the occiput, and then the tail was fixed so that it descended downwardly at an angle of 30°. […]
While body temperatures of the rats were measured at intervals of 30 minutes for 2 hours, and thereafter measured at intervals of 1 hour for 3 hours after ischemia induction, the rats were maintained at 37±0.5° C. using a temperature-controlling heater. The body temperature was measured by inserting a probe into the rectum to a depth of 6 cm. […]

sciatic nerves = test: Regeneration of crushed sciatic nerves (axons, myelin sheaths); format: in vivo, Sprague-Dawley white rat; details: 3 weeks, berberine intraperitoneal
[2] = tested on: nerve cells in CA1, dentate gyrus and entorhinal cortex; test: Animal model for dementia (ibotenic acid into entorhinal cortex), calbindin-positive neuron count; format: in vivo, rat
Description: After white rat brain was fixed with a stereotaxic frame, 1.5 μl (1 mg/ml) of ibotenic acid and PBS, or 1.5 μl (1 mg/ml) of berberine was injected into the entorhinal cortex region using a microinjector to prepare a model for dementia. […]
Brain was fixed with 4% paraformaldehyde and cryosected to a thickness of 40 μm, and then the cryosected brain was permeablized with 0.5% Triton X-100 for 20 minutes and blocked using 15% blocking serum for 2 hours. After reacting with anti-calbindin antibody at a temperature 4° C. for 16 hours and then further reacting with FITC-labeled secondary antibody or rhodamin (TRITC)-labeled secondary antibody for 1 hour, the cells were fixed on a slide before examining under a confocal microscope.
As an animal model for dementia, ibotenic acid was microinjected into the entorhinal cortex of adult rat brain using a stereotaxic frame.
First, an adult rat was anesthetized, and its head was fixed with a stereotaxic frame. Subsequently, 1.5 μl (1 mg/ml) of ibotenic acid was injected into the entorhinal cortex region to prepare a model for dementia, and then berberine was injected into the same site. 2 weeks after operation, brain tissue sections were counter-stained with hematocylin to examine apoptosis and protective effect. After fluorescence-staining the cells, regions used for cell count were represented as squares (FIG. 14). In addition, the cells were fluorescence-stained with calbindin antibody, a nerve-specific marker, to examine nerve cell survival (see, Tables 8 to 10, FIGS. 11 and 12).

[3] = Ibotenic Acid + Berberine, 2 weeks after operation
[4] = berberine injected after ibotenic acid

## COc1ccc2cc3[n+](cc2c1OC)CCc1cc2c(cc1-3)OCO2 [Berberine, 7,8,13,13a-tetradihydro-9,10-dimethoxy-2,3-(methylenedioxy) berbinium]
[1]
  density of viable cells in hippocampal CA1: 257±9.6 cell/mm^2
Sciatic nerves; PBS = 21.3
  number of axons longer than 300 μm: 51.6
Sciatic nerves; PBS = 40
  number of myelin sheaths longer than 200 μm: 112
[2]; Berberine alone
  cell number (%) relative to Ibotenic Acid, CA, average: 311%
  cell number (%) relative to Ibotenic Acid, DG, average: 204%
  cell number (%) relative to Ibotenic Acid, ENT, average: 225%
  cell number relative to Ibotenic Acid average = 100, CA (individual animals #1-#3): 355 and 257 and 320
  cell number relative to Ibotenic Acid average = 100, DG (individual animals #1-#3): 229 and 189 and 195
  cell number relative to Ibotenic Acid average = 100, ENT (individual animals #1-#3): 237 and 208 and 229
  cell number, CA (individual animals #1-#3): 174 and 126 and 157
  cell number, CA, AVR: 152.3
  cell number, DG (individual animals #1-#3): 421
  cell number, DG, AVR: 375.3
  cell number, ENT (individual animals #1-#3): 173 and 152 and 167
  cell number, ENT, AVR: 164
[2]; Ibotenic Acid + Berberine
  cell number (%) relative to Ibotenic Acid, CA, average: 278%
  cell number (%) relative to Ibotenic Acid, DG, average: 190%
  cell number (%) relative to Ibotenic Acid, ENT, average: 126%
  cell number relative to Ibotenic Acid average = 100, CA (individual animals #1-#3): 231 and 337 and 267
  cell number relative to Ibotenic Acid average = 100, DG (individual animals #1-#3): 221 and 157 and 191
  cell number relative to Ibotenic Acid average = 100, ENT (individual animals #1-#3): 129 and 122 and 127
  cell number, CA, AVR: 136.3
  cell number, DG, AVR: 348.7
  cell number, ENT, AVR: 92
[2]; [3]
  cell number, CA (individual animals #1-#3): 113 and 165 and 131
  cell number, DG (Dentate Gyrus) (individual animals #1-#3): 406 and 289 and 351
  cell number, ENT (Entorhinal Cortex) (individual animals #1-#3): 94 and 89 and 93
[2]; [4]
  survival of calbindin-positive neurons in the entorhinal cortex: somewhat increased
  survival rates of granule cells in the dentate gyrus regions, increase: doubled; also recorded: two times
  survival rates of pyramidal cells in the CA1 region, increase: 2.5 times

Source: patent publication US20040097534A1, “Composition for the protection and regeneration of nerve cells containing berberine derivatives” (EUGENBIO INC., priority 2001, published 2004)
